Read-outs that look alike come from different tables or passages of the source.
Columns and labels:
HCT116 MTAP null cells = assay: HCT116 proliferation assay, MTAP null cells (CellTiter-Glo, 6 days); type: cell-based; details: read-out: Protif_ HCT116-MTAP null IC50
Outline: (§1)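 Readout is CellTiter-Glo luminescence after 6 days of drug exposure at 37 °C. Compounds tested as 8–9 point, 3-fold dilution series starting at 1 or 10 µM, versus DMSO only, on cells in RPMI 1640 with 10% FBS.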

HCT116 WT cells = assay: HCT116 proliferation assay, WT cells (CellTiter-Glo, 6 days); type: cell-based; details: read-out: Prolif_HCT116-WT IC50
Outline: as §1

PRMT5/MEP50 = PRMT5/MEP50 (Homo sapiens, UniProt O14744); assay: MTase-Glo methyl transferase assay, Method B (FL-Histone H2A, 1 µM MTA, 1 h pre-incubation); type: biochemical; design: purchased Reaction Biology Corp RD-11-292; details: read-out: PRMT5 MTase Glo Ki (nM, Meth. B)
Chain of PRMT5/MEP50 (O14744 2-637 limits assumed): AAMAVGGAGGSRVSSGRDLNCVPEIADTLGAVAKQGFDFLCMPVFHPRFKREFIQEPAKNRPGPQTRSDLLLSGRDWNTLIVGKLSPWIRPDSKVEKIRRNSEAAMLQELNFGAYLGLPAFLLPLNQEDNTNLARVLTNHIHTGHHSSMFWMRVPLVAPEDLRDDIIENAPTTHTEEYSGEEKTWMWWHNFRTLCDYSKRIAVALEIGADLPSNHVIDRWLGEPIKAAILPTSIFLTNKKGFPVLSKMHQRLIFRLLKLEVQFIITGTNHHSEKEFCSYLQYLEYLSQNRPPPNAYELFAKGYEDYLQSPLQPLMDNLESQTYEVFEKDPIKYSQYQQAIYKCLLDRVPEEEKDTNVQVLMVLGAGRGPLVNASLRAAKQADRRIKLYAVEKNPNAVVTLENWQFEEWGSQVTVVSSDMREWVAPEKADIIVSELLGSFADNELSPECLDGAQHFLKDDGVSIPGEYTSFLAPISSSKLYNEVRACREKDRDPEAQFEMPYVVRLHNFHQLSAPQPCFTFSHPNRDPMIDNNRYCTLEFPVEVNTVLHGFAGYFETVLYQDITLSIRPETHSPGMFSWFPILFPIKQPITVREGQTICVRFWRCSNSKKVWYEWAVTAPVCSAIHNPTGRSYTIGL
Chain of PRMT5/MEP50 (Q9BQA1 2-342 partner limits assumed): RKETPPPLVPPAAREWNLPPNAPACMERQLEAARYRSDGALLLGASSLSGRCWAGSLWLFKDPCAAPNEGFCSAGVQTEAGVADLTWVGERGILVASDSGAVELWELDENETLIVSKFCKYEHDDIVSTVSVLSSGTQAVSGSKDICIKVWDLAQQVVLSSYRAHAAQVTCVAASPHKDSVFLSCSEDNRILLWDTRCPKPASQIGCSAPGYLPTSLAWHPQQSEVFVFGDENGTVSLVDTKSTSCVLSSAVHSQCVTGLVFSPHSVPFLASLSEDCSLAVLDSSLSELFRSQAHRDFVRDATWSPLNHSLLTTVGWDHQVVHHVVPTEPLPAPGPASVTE
Outline: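 PRMT5/MEP50 (4 nM) was pre-incubated 1 h with compound, 5 µM SAM and 1 µM MTA, then started with 2.5 µM FL-Histone H2A in Tris pH 8.0 buffer. After 20 h at room temperature, SAH was detected by MTase-Glo luminescence, and IC50/KI were fitted from dose-response curves.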

Row | Compound | IC50 (HCT116 MTAP null cells) | IC50 (HCT116 WT cells) | Ki (PRMT5/MEP50) | IC50 (HCT116 MTAP null cells; HCT116-MTAP null, 144 h) | IC50 (HCT116 WT cells; Homo sapiens, HCT-116, 144 h) | IC50 (HCT116 MTAP null cells; 144 h)
1 | 2-amino-3-methyl-N-[(4-methylthiazol-5-yl)methyl] -N-[[5-(trifluoromethyl)-2-pyridyl]methyl] quinoline-6-carboxamide [Example 565] | 94 nM | 3490 nM | 2.77 nM | – | – | –
2 | Cc1cc2cc(C(=O)N(Cc3ccc(C(F)(F)F)cn3)CC3CCC3)ccc2nc1N [Example 562, 2-amino-N-(cyclobutylmethyl)-3-methyl-N-[[5-(trifluoromethyl)-2-pyridyl]methyl]quinoline-6-carboxamide] | – | – | 3.76 nM | 455 nM | > 1000 nM | –
3 | Cc1cc2cc(C(=O)N(Cc3ccc(CO)c(F)c3)Cc3ccc(C(F)(F)F)cn3)ccc2nc1N [Example 566, 2-amino-N-[[3-fluoro-4-(hydroxymethyl)phenyl]methyl]-3-methyl-N-[[5-(trifluoromethyl)-2-pyridyl]methyl] quinoline-6-carboxamide] | – | – | 4.58 nM | 277 nM | > 10000 nM | –
4 | Cc1cc2cc(C(=O)N(Cc3ccc(C(F)(F)F)cn3)Cc3c[nH]c4ccccc34)ccc2nc1N [Example 567, 2-amino-N-(1H-indol-3-ylmethyl)-3-methyl-N-[[5-(trifluoromethyl)-2-pyridyl]methyl] quinoline-6-carboxamide] | – | – | 4.44 nM | 103 nM | > 1000 nM | –
5 | Cc1cc2cc(C(=O)N(Cc3ccc(N)nc3)Cc3ccc(C(F)(F)F)cn3)ccc2nc1N [Example 568, 2-amino-N-[(6-amino-3-pyridyl)methyl]-3-methyl-N-[[5-(trifluoromethyl)-2-pyridyl]methyl] quinoline-6-carboxamide] | – | – | 2 to 3 nM | 130 nM | 5550 nM | –
6 | Cc1cc2cc(C(=O)N(Cc3ccc4[nH]c(=O)[nH]c4c3)Cc3ccc(C(F)(F)F)cn3)ccc2nc1N [Example 570, 2-amino-3-methyl-N-((2-oxo-2,3-dihydro-1H-benzo[d]imidazol-5-yl)methyl)-N-((5-(trifluoromethyl)pyridin-2-yl)methyl)quinoline-6-carboxamide] | – | – | 2.39 nM | 343 nM | > 10000 nM | –
7 | Cc1cc2cc(C(=O)N(Cc3ccc(N4CCC(C(N)=O)CC4)cc3)Cc3scnc3C)ccc2nc1N [Example 572, 2-amino-N-(4-(4-carbamoylpiperidin-1-yl)benzyl)-3-methyl-N-((4-methylthiazol-5-yl)methyl)quinoline-6-carboxamide] | – | – | 3.48 nM | 608 nM | > 10000 nM | –
8 | Cc1cc2cc(C(=O)N(Cc3ccc(C(F)(F)F)cn3)CC(C)C3CC3)ccc2nc1N (stereo not shown) [Example 575, 2-amino-N-(2-cyclopropylpropyl)-3-methyl-N-((5-(trifluoromethyl)pyridin-2-yl)methyl)quinoline-6-carboxamide] | – | – | 2.89 nM | 78 nM | > 1000 nM | –
9 | Cc1cc2cc(C(=O)N(CCc3ncon3)Cc3ccc(C(F)(F)F)cn3)ccc2nc1N [Example 576, N-(2-(1,2,4-oxadiazol-3-yl)ethyl)-2-amino-3-methyl-N-((5-(trifluoromethyl)pyridin-2-yl)methyl)quinoline-6-carboxamide] | – | – | 5.89 nM | 749 nM | > 10000 nM | –
10 | Cc1cc2cc(C(=O)N(Cc3ccc(C(F)(F)F)cn3)CC3(C#N)CC3)ccc2nc1N [Example 577, 2-amino-N-((1-cyanocyclopropyl)methyl)-3-methyl-N-((5-(trifluoromethyl)pyridin-2-yl)methyl)quinoline-6-carboxamide] | – | – | 3.89 nM | 159 nM | 6650 nM | –
11 | Cc1cc2cc(C(=O)N(Cc3ccc(C(F)(F)F)cn3)Cc3c(C)c4ccccc4n3C)ccc2nc1N [Example 578, 2-amino-N-((1,3-dimethyl-1H-indol-2-yl)methyl)-3-methyl-N-((5-(trifluoromethyl)pyridin-2-yl)methyl)quinoline-6-carboxamide] | – | – | 15.4 nM | 859 nM | 5090 nM | –
12 | Cc1cc2cc(C(=O)N(Cc3ccc(C(F)(F)F)cn3)Cc3cocn3)ccc2nc1N [Example 580, 2-amino-3-methyl-N-(oxazol-4-ylmethyl)-N-[[5-(trifluoromethyl)-2-pyridyl]methyl] quinoline-6-carboxamide] | – | – | 2.24 nM | 110 nM | 5600 nM | –
13 | Cc1cc2c(nc1N)CCC(C(=O)N(Cc1ccc(C(F)(F)F)cn1)Cc1ccnc3[nH]ccc13)C2 (stereo not shown) [Example 581, N-((1H-pyrrolo[2,3-b]pyridin-4-yl)methyl)-2-amino-3-methyl-N-((5-(trifluoromethyl)pyridin-2-yl)methyl)-5,6,7,8-tetrahydroquinoline-6-carboxamide] | – | – | 16 nM | 840 nM | > 1000 nM | –
14 | Cc1cc2cc(C(=O)N(Cc3ccc(C(F)(F)F)cn3)CC(C)C(F)(F)F)ccc2nc1N (stereo not shown) [Example 591, 2-amino-3-methyl-N-(3,3,3-trifluoro-2-methylpropyl)-N-((5-(trifluoromethyl)pyridin-2-yl)methyl)quinoline-6-carboxamide] | – | – | 16.5 nM | – | > 1000 nM | 456 nM

Further lines, with some results ahead:

Row | IC50 (HCT116 MTAP null cells) | IC50 (HCT116 WT cells) | Ki (PRMT5/MEP50) | IC50 (HCT116 MTAP null cells; HCT116-MTAP null, 144 h) | IC50 (HCT116 WT cells; Homo sapiens, HCT-116, 144 h) | Compound | IC50 (HCT116 MTAP null cells; 144 h)
15 | – | – | 14.9 nM | 921 nM | 6800 nM | Cc1cc2cc(C(=O)N(Cc3cncc(F)c3)Cc3ccccc3F)ccc2nc1N [Example 590, 2-amino-N-(2-fluorobenzyl)-N-((5-fluoropyridin-3-yl)methyl)-3-methylquinoline-6-carboxamide] | –
16 | – | – | 13.2 nM | 185 nM | > 1000 nM | Cc1cc2cc(C(=O)N(Cc3ccc(C(F)(F)F)cn3)C3COCc4ccccc43)ccc2nc1N (stereo not shown) [Example 593, 2-amino-N-(isochroman-4-yl)-3-methyl-N-((5-(trifluoromethyl)pyridin-2-yl)methyl)quinoline-6-carboxamide] | –
17 | – | – | 1.68 nM | 94 nM | – | Cc1cc2cc(C(=O)N(Cc3ccccc3O)Cc3ccnc4[nH]ccc34)ccc2nc1N [Example 690, 2-amino-N-[(2-hydroxyphenyl)methyl]-3-methyl-N-(1H-pyrrolo[2,3-b]pyridin-4-ylmethyl)quinoline-6-carboxamide] | –
18 | – | – | 3.51 nM | 520 nM | – | Cc1cc2cc(C(=O)N(Cc3ccc(N)cn3)Cc3c[nH]c4ccccc34)ccc2nc1N [Example 691, 2-amino-N-[(5-amino-2-pyridyl)methyl]-N-(1H-indol-3-ylmethyl)-3-methyl-quinoline-6-carboxamide] | –
19 | – | – | 6.14 nM | 97 nM | – | Cc1cc2cc(C(=O)N(Cc3ccc(C(F)(F)F)cn3)C(C)CC#N)ccc2nc1N (stereo not shown) [Example 693, 2-amino-N-(2-cyano-1-methyl-ethyl)-3-methyl-N-[[5-(trifluoromethyl)-2-pyridyl]methyl] quinoline-6-carboxamide] | –
20 | – | – | 6.3 nM | 760 nM | – | Cc1cc2cc(C(=O)N(CCC3CC3)Cc3ccc(C(F)(F)F)cn3)ccc2nc1N [Example 695, 2-amino-N-(2-cyclopropylethyl)-3-methyl-N-[[5-(trifluoromethyl)-2-pyridyl]methyl] quinoline-6-carboxamide] | –
21 | – | – | 2.19 nM | 200 nM | – | Cc1cc2cc(C(=O)N(Cc3ccc(C(F)(F)F)cn3)C(C)CC3CC3)ccc2nc1N (stereo not shown) [Example 696, 2-amino-N-(2-cyclopropyl-1-methylethyl)-3-methyl-N-[[5-(trifluoromethyl)-2-pyridyl]methyl] quinoline-6-carboxamide] | –

Source: patent US20230159510A1, “NOVEL PRMT5 INHIBITORS” (AMGEN INC., priority 2020, published 2023)
